Laboratory results taken from PubChem BioAssay AID743353 (Broad Institute, 2014).
The source made the active and inactive calls.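 The calls were made as follows: active = compound that lowers cell viability with a fitted AC50 at most twice its highest valid tested dose; inconclusive = flat curve with 30 to 70% loss, or poor fit; inactive = the rest.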

Tested on: not listed separately
Assay: HEK293 cell cytotoxicity, dose response, cytotoxicity control, luminescence, dry powder, set 13 (AID 743353)
Details: HEK293T viability, ATP luminescence CellTiter-Glo, 72 h; at 26 µM (top of the series)

| Structure (SMILES) | activity change, negative = cytotoxicity |
| --- | --- |
| CC(=O)c1ccc(N2CCN(C(=O)c3ccc4snnc4c3)CC2)cc1 | -9.09% (inactive) |
| O=C(c1ccc2c(c1)OCO2)N1CCN(c2ccc(S(=O)(=O)C(F)F)cc2)CC1 | -6.54% (inactive) |
| COc1cc(C(=O)N2CCN(c3ccc(C(C)=O)cc3)CC2)cc2c1OCO2 | -13.3% (inactive) |
| CC(=O)c1ccc(N2CCN(C(=O)c3ccc(Cl)c(Cl)c3)CC2)cc1 | -9.71% (inactive) |
| CC(=O)c1ccc(N2CCN(C(=O)c3cc(Cl)c4c(c3)OCO4)CC2)cc1 | -6.52% (inactive) |
| CC(=O)c1ccc(N2CCN(C(=O)c3cccc4c3OCO4)CC2)cc1 | 0.216% (inactive) |
| O=C(c1ccc2c(c1)OCO2)N1CCN(c2ccc(C(F)(F)F)cc2)CC1 | -8.83% (inactive) |
| N#Cc1ccc(N2CCN(C(=O)c3ccc4c(c3)OCO4)CC2)cc1 | -2.51% (inactive) |
| CC(=O)c1ccc(N2CCCN(C(=O)c3ccc4c(c3)OCO4)CC2)cc1 | 0.038% (inactive) |
| CC(=O)c1ccc(N2CCN(C(=O)c3cc4c(cn3)OCO4)CC2)cc1 | -11.9% (inactive) |
| CC(=O)c1ccc(N2CCN(C(=O)c3cc4c(cc3Cl)OCO4)CC2)cc1 | -7.51% (inactive) |
| COc1ccc(C(=O)N2CCN(c3ccc(C(C)=O)cc3)CC2)cc1OC | -1.09% (inactive) |
| O=C(c1ccc2c(c1)OCO2)N1CCN(c2ccc(OC(F)(F)F)cc2)CC1 | -10.3% (inactive) |
| CC(=O)c1ccc(N2CC3CC2CN3C(=O)c2ccc3c(c2)OCO3)cc1 (stereo unspecified) | 4.9% (inactive) |
| CC(=O)c1ccc(N2CCN(C(=O)c3ccc4c(c3)OCO4)CC2)cc1 | -2.01% (inactive) |
| CC(=O)c1ccc(N2CCN(S(=O)(=O)c3ccc4c(c3)OCO4)CC2)cc1 | -12.5% (inactive) |
| CC(=O)c1ccc(N2CCN(C(=O)c3ccc4ocnc4c3)CC2)cc1 | -8.67% (inactive) |
| COc1cc2c(cc1C(=O)N1CCN(c3ccc(C(C)=O)cc3)CC1)OCO2 | -3.95% (inactive) |
| CC(=O)c1ccc(N2CCN(C(=O)c3ccc4c(c3C)OCO4)CC2)cc1 | -17% (inactive) |
| CS(=O)(=O)c1ccc(N2CCN(C(=O)c3ccc4c(c3)OCO4)CC2)cc1 | 3.29% (inactive) |
| CN(C)S(=O)(=O)c1ccc(N2CCN(C(=O)c3ccc4c(c3)OCO4)CC2)cc1 | -16.1% (inactive) |
| CC(=O)c1ccc(N2CCN(C(=O)Nc3ccc4c(c3)OCO4)CC2)cc1 | -0.537% (inactive) |
| CC(=O)c1ccc(N2CCN(C(=O)c3ccc4c(c3)OC(F)(F)O4)CC2)cc1 | -14.8% (inactive) |

Tested on: HEK293T viability, ATP luminescence CellTiter-Glo, 72 h
Assay: as above
Details: not given

| Structure (SMILES) | AC50 |
| --- | --- |
| CC(=O)c1ccc(N2CCN(C(=O)c3ccc4c(c3)OC(C)(C)O4)CC2)cc1 | > 52 µM (inactive) |
| CC(=O)c1ccc(N2CCN(C(=O)c3cc4c(cc3C)OCO4)CC2)cc1 | > 52 µM (inactive) |
| O=C(c1ccc2c(c1)OCO2)N1CCN(c2ccc(S(=O)(=O)C(F)(F)F)cc2)CC1 | > 52 µM (inactive) |
